Experimental data from article PMC8962382, “Identification of Novel Mitochondrial Pyruvate Carrier Inhibitors by Homology Modeling and Pharmacophore-Based Virtual Screening” (Biomedicines, 2022).
Where a chain is given by its changes, count along the chain named. Read-outs that look alike come from different tables or passages of the source. One block for each compound: values may come before it.

Tests used:
[1] = molecular target: T1, mitochondrial pyruvate carrier (MPC) (Mus musculus, UniProt P63030+Q9D023); assay: Inhibition of pyruvate-stimulated respiration (OCR) of isolated heart mitochondria; assay type: biochemical, mice; settings: for IC50: Table 1, inhibiting mitochondrial pyruvate respiration, isolated heart mitochondria
T1 construct: 50 µg of mitochondrial protein was added to the chambers of an Oxygraph O2K; from tissue; host or cells: heart mitochondria of C57Bl/6J mice
T1 sequence (P63030 2-109 limits assumed): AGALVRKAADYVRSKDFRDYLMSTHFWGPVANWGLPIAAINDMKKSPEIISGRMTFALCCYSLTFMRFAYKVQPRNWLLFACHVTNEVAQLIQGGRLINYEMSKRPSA
T1 sequence (Q9D023 1-127): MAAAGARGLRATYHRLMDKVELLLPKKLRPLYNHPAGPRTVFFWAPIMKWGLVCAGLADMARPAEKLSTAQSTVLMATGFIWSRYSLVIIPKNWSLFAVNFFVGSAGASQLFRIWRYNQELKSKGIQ
Description: Hearts were removed from mice after CO2 asphyxiation and homogenized in buffer containing 250 mM sucrose, 10 mM Tris base, and 1 mM EDTA (pH = 7.4) by 8–10 passes of a glass-on-glass Dounce homogenizer on ice. Homogenates were centrifuged at 1000× g for 5 min at 4 °C to pellet nuclei and undisrupted cells. The supernatants were then centrifuged at 10,000× g for 10 min at 4 °C to enrich for mitochondria; this mitochondrial pellet was washed and re-pelleted twice in fresh sucrose/tris buffer. The mitochondrial pellet was then solubilized in ~150 μL of Mir05 respiration buffer (0.5 mM EGTA, 3 mM MgCl2, 60 mM lactobionic acid, 20 mM taurine, 10 mM KH2PO4, 20 mM HEPES, 110 mM sucrose and 1 g/L of fatty acid free bovine serum albumin; pH 7.1). Mitochondrial protein content was then measured by BCA; 50 µg of mitochondrial protein was added to the chambers of an Oxygraph O2K (Oroboros Instruments), with a total volume of 2 mL Mir05 buffer set to 37 °C. Respiration was stimulated with 5 mM pyruvate/2 mM malate and 2 mM ADP. After obtaining steady state respiration measurements, compounds were added to the chamber at the indicated concentrations. Then, 5 mM succinate was added to determine inhibitor specificity towards pyruvate-stimulated respiration. Steady-state rates of oxygen consumption were assessed for 1–2 min before addition of subsequent substrate or inhibitor. Oxygen consumption rates (OCR) were calculated from the change in oxygen concentration over time and normalized to 50 µg of mitochondria within the chamber.

[2] = molecular target: T2, Human MPC1 and MPC2 (WT MPC BRET constructs) (Homo sapiens, UniProt O95563+Q9Y5U8); assay: BRET-based MPC reporter assay in U2OS cells (MPC1-mCherry / MPC2-NLuc); assay type: cell-based; settings: for BRET activity: test compounds dosed at 10 μM, U2OS cells, WT MPC BRET constructs; for BRET assay activation: WT MPC
T2 construct: expressed in transfected cells; host or cells: U2OS cells, transient transfection
T2 sequence (Q9Y5U8 2-109 limits assumed): T1 sequence (P63030 2-109 limits assumed) with V84A, N99K, Y100H, S103T, R105T, P106A
T2 sequence (O95563 1-127): T1 sequence (Q9D023 1-127) with A2S, M17L, L23M, K26E, T73A, S105A, S123A, G125A, I126H, Q127K
Description: Based on the success of a previously described MPC BRET reporter assay, we developed our own BRET assay using more recently adopted BRET donor and acceptor pairs. In this assay, Nanoluciferase is used as the BRET donor, and mCherry fluorescent protein is used as the BRET acceptor. Human MPC1 and MPC2 cDNA constructs with stop codon removed for C-terminal tagging were obtained from the Harvard PlasmID repository. […] Site-directed mutagenesis (Agilent) was then performed to delete linking regions between the MPC proteins and C-terminal tags.
For BRET assays, U2OS cells were transiently transfected with MPC1-mCherry and MPC2-NLuc constructs and, 24 h later, plated onto 9 columns of a clear-bottom white 96-well plate at 10,000 cells/well. As a BRET control, some cells were transfected with MPC2-NLuc only, and these cells plated on the remaining 3 columns of the 96-well plate at 10,000 cells/well. The following day, cells were washed with PBS and starved in phenol red-, glucose-, and pyruvate-free Dulbecco’s Modified Eagle’s Medium (DMEM) for 3 h. Cells were then washed in PBS and then provided PBS with 1 mM CaCl2 and 0.5 mM MgCl2 plus 2 μg/mL coelenterazine h BRET substrate, a white sticker applied to the bottom of the plate, and the plate immediately placed into a BioTek Synergy plate reader. […] After several baseline readings, the plate was ejected, and test substrates/compounds were manually pipetted into the wells. […] All data was then normalized to the values immediately prior to compound injection. Data were either reported as curves over time or average normalized BRET of the several readings immediately after compound injections. For testing pyruvate/inhibitor-binding residues, point mutations were made in MPC1 or MPC2 constructs by site-directed mutagenesis (Agilent); BRET assays were performed the same as above. All of these assays contained 96-well plates directly comparing cells expressing WT MPC and mutant BRET constructs.

MPC1-F66A or MPC2-K49A = assay: BRET-based MPC reporter assay with mutant MPC constructs; assay type: cell-based, Human; settings: magnitude much less than in WT-expressing cells
Description: For BRET assays, U2OS cells were transiently transfected with MPC1-mCherry and MPC2-NLuc constructs and, 24 h later, plated onto 9 columns of a clear-bottom white 96-well plate at 10,000 cells/well. As a BRET control, some cells were transfected with MPC2-NLuc only, and these cells plated on the remaining 3 columns of the 96-well plate at 10,000 cells/well. The following day, cells were washed with PBS and starved in phenol red-, glucose-, and pyruvate-free Dulbecco’s Modified Eagle’s Medium (DMEM) for 3 h. Cells were then washed in PBS and then provided PBS with 1 mM CaCl2 and 0.5 mM MgCl2 plus 2 μg/mL coelenterazine h BRET substrate, a white sticker applied to the bottom of the plate, and the plate immediately placed into a BioTek Synergy plate reader. Luminescence was then read repeatedly from the top of the plate at emission wavelengths of 485/20 nm and 640/40 nm for NLuc and mCherry signals, respectively. After several baseline readings, the plate was ejected, and test substrates/compounds were manually pipetted into the wells. […] To calculate BRET activity, at each reading interval, the luminescence of 620 nm emission wavelength was divided by the 485 nm emission wavelength, and the values from the MPC2-Nluc-only expressing cells were subtracted from the cells expressing both constructs. […]

IC50 [1]: inactive
SMILES: CCOC(=O)/C(C#N)=C/c1c[nH]nc1C(C)(C)C [BE1988]

BRET activity [2]: increased BRET activity
IC50 ([1]; read-out: IC50): 638 nM
fold less potent than BE1978 ([1]; ratio of IC50 values): 5 fold
fold less potent than BE1980 ([1]; ratio of IC50 values): 4 fold
SMILES: N#C/C(=C\c1c[nH]nc1-c1cccc(Br)c1)C(=O)O [BE1985]

BRET assay activation ([2]; 10 μM MSDC-0602K vs DMSO vehicle): activated
SMILES: COc1cccc(C(=O)COc2ccc(CC3SC(=O)[N-]C3=O)cc2)c1.[K+] (stereo not shown) [MSDC-0602K, reference compound]
BRET activity in mutants (MPC1-F66A or MPC2-K49A): small, but significant, activation of BRET activity

MPC inhibitory activity ([1]; SAR statement): abolished activity
IC50 [1]: inactive
SMILES: O=C(NC(Cc1c[nH]c2ccccc12)C(=O)O)C1CC1 (stereo not shown) [BE1975]

BRET activity [2]: showed activity
IC50 ([1]; read-out: IC50): 731 nM
fold less potent than UK-5099 ([1]; inhibiting the respiration): 3 fold
fold less potent than BE2617 ([1]; ratio of IC50 values): more than 18 fold
SMILES: Cc1ccc(-c2c[nH]nc2/C=C(\C#N)C(=O)O)cc1 [BE2623, (E)-2-Cyano-3-[4-(p-Tolyl)-3-Pyrazolyl]acrylic Acid]

BRET activity [2]: increased BRET activity
IC50 ([1]; read-out: IC50): 162 nM
SMILES: Cc1nn(-c2ccccc2)c(C)c1/C=C(\C#N)C(=O)O [BE1980, (E)-2-Cyano-3-(3,5-Dimethyl-1-Phenyl-4-Pyrazolyl)acrylic Acid]

BRET assay activation ([2]; 5 mM pyruvate vs DMSO vehicle): activated
SMILES: CC(=O)C(=O)O [pyruvate]

BRET activity [2]: showed activity
IC50 ([1]; read-out: IC50): 39 nM
fold more potent than UK-5099 ([1]; ratio of IC50 values): 6 fold
SMILES: N#C/C(=C\c1n[nH]cc1-c1ccccc1)C(=O)O [BE2617, (E)-2-Cyano-3-(4-Phenyl-3-Pyrazolyl)acrylic Acid]

BRET assay activation ([2]; 5 μM UK-5099 vs DMSO vehicle): activated
IC50 ([1]; read-out: IC50): 241 nM
SMILES: N#C/C(=C\c1cn(-c2ccccc2)c2ccccc12)C(=O)O [UK-5099, reference compound]
BRET activity in mutants (MPC1-F66A or MPC2-K49A): small, but significant, activation of BRET activity
